Data on 34 compounds can be found in patent US7674795B2, “Fluorene derivatives, composition containing said derivatives and the use thereof” (Aventis Pharma SA, priority 2005, dated 2010).

Structures can show the parent of a compound that is named as a salt.

Chain of Hsp82 (P02829 whole entry): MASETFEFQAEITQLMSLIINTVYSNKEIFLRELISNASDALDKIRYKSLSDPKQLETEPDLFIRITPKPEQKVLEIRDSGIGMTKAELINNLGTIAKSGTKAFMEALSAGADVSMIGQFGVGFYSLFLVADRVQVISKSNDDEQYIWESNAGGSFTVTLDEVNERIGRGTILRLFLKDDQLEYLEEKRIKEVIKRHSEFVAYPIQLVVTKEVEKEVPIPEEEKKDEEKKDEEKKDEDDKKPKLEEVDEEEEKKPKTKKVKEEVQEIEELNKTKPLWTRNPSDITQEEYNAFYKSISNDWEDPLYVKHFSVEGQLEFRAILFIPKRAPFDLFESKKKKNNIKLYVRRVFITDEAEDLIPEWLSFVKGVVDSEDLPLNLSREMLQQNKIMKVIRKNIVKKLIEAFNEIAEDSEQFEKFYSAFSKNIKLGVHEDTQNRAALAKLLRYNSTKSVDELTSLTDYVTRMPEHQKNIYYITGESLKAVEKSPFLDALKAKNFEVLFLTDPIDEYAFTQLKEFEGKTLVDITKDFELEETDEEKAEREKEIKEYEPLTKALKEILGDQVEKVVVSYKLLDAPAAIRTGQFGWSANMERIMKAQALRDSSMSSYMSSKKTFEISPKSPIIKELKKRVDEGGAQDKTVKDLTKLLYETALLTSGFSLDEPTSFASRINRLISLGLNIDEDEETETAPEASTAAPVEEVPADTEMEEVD

The test deals with Hsp82 (Saccharomyces cerevisiae, UniProt P02829). Put plainly: PK/LDH enzyme coupling test of the ATPase activity of Hsp82 (NADH decrease at 340 nm). Format: biochemical. Conditions: 1 μM Hsp82, 250 μM ATP, 37° C., pyruvate kinase/lactate dehydrogenase coupling, read-out: Hsp82 ATPase IC50. In outline:
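Yeast Hsp82 ATPase was coupled to PK/LDH, with ADP formation followed continuously as NADH loss at 340 nm at 37 °C. The mixture was preincubated 30 min at 37 °C, and the reaction was started with compound at variable concentrations plus Hsp82 at 1 μM. Initial rates (μM ADP/min) came from the tangent slope at origin, expressed as % inhibition.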
As usually defined, the IC50 is the point on the concentration scale where inhibition reaches its midpoint. In the case of `O=C(NC1c2ccccc2-c2c(-c3nc4cccnc4[nH]3)cccc21)c1ccncc1` (racemic) [Example 110, N-[4-(3H-imidazo[4,5-b]pyridin-2-yl)-9H-fluoren-9(R,S)-yl]-isonicotinamide], the IC50 was 10 to 100 µM.
Then `COCCCNC(=O)c1cc(C(=O)NC2c3ccccc3-c3c(-c4nc5ccncc5[nH]4)cccc32)ccn1` (racemic) [Example 112, 4-{[4-(3H-imidazo[4,5-c]pyridin-2-yl)-9H-fluoren-9(R,S)-yl]amide}-2-[(3-methoxy-propyl)-amide] of pyridine-2,4-dicarboxylic acid], with 1 to 10 µM; and `O=C(NC1c2ccccc2-c2c(-c3nc4ccncc4[nH]3)cccc21)c1cc(-c2ccco2)nc2ccccc12` (racemic) [Example 113, [4-(3H-imidazo[4,5-c]pyridin-2-yl)-9H-fluoren-9(R,S)-yl]amide of 2-(furan-2-yl)-quinoline-4-carboxylic acid], with 1 to 10 µM; and `O=C(NC1c2ccccc2-c2c(-c3nc4ccncc4[nH]3)cccc21)c1ccncc1F` (racemic) [Example 114, 3-fluoro-N-[4-(3H-imidazo[4,5-c]pyridin-2-yl)-9H-fluoren-9(R,S)-yl]-isonicotinamide], with 1 to 10 µM.
For `Nc1cccc(C(=O)NC2c3ccccc3-c3c(-c4nc5ccncc5[nH]4)cccc32)c1` (racemic) [Example 115, 3-amino-N-[4-(3H-imidazo[4,5-c]pyridin-2-yl)-9H-fluoren-9(R,S)-yl]-benzamide] the value was 10 to 100 µM.
With `CNc1cc(C(=O)NC2c3ccccc3-c3c(-c4nc5ccncc5[nH]4)cccc32)ccn1` (racemic) [Example 116, N-[4-(3H-imidazo[4,5-c]pyridin-2-yl)-9H-fluoren-9(R,S)-yl]-2-methylamino-isonicotinamide], the IC50 was in the range of 1 to 10 µM.
Then `O=C(NC1c2ccccc2-c2c(-c3nc4ccc(O)cc4[nH]3)cccc21)c1ccncc1` (racemic) [Example 117, N-[4-(6-hydroxy-1H-benzimidazol-2-yl)-9H-fluoren-9(R,S)-yl]-isonicotinamide], with 1 to 10 µM; and `O=C(NC1c2ccccc2-c2c(-c3nc4ccncc4[nH]3)cccc21)c1c(Br)cnc2[nH]cnc12` (racemic) [Example 118, [4-(3H-imidazo[4,5-c]pyridin-2-yl)-9H-fluoren-9(R,S)-yl]amide of 6-bromo-3H-imidazo[4,5-b]pyridine-7-carboxylic acid], with less than 1 µM; and `O=C(NC1c2ccccc2-c2c(-c3nc4ccncc4[nH]3)cccc21)c1cc(N2CCCCC2)nc2ccccc12` (racemic) [Example 119, [4-(3H-imidazo[4,5-c]pyridin-2-yl)-9H-fluoren-9(R,S)-yl]amide of 2-piperidin-1-yl-quinoline-4-carboxylic acid], with 1 to 10 µM.
For `O=C(NC1c2ccccc2-c2c(-c3nc4ccncc4[nH]3)cccc21)c1ccnc(N2CCCC2)c1` (racemic) [Example 120, N-[4-(3H-imidazo[4,5-c]pyridin-2-yl)-9H-fluoren-9(R,S)-yl]-2-pyrrolidin-1-yl-isonicotinamide] the value was 1 to 10 µM; for `Cc1cc(C(=O)NC2c3ccccc3-c3c(-c4nc5ccncc5[nH]4)cccc32)cc(O)n1` (racemic) [Example 121, 2-hydroxy-N-[4-(3H-imidazo[4,5-c]pyridin-2-yl)-9H-fluoren-9(R,S)-yl]-6-methyl-isonicotinamide], 1 to 10 µM; for `O=C(OC1c2ccccc2-c2c(-c3nc4ccncc4[nH]3)cccc21)c1ccncc1` (racemic) [Example 122, 4-(3H-imidazo[4,5-c]pyridin-2-yl)-9H-fluoren-9(R,S)-yl ester of isonicotinic acid], less than 1 µM.
Then `O=C(OC1c2ccccc2-c2c(-c3nc4ccncc4[nH]3)cccc21)c1cccc2ncccc12` (racemic) [Example 124, 4-(3H-imidazo[4,5-c]pyridin-2-yl)-9H-fluoren-9(R,S)-yl of 5-quinolinecarboxylic acid], with 1 to 10 µM; and `CC(C)(C)OC(=O)Nc1cc(C(=O)NC2c3ccccc3-c3c(-c4nc5ccncc5[nH]4)cccc32)ccn1` (racemic) [Example 125, N-[4-(3H-imidazo[4,5-c]pyridin-2-yl)-9H-fluoren-9(R,S)-yl]amide of 2-tert-butoxycarbonylaminoisonicotinic acid], with less than 1 µM.
Consider `NC(=O)c1cccc(C(=O)NC2c3ccccc3-c3c(-c4nc5ccncc5[nH]4)cccc32)c1` (racemic) [Example 126, N-[4-(3H-imidazo[4,5-c]pyridin-2-yl)-9H-fluoren-9(R,S)-yl]isophthalamide], for which the IC50 lay within 1 to 10 µM.
For `O=C(N[C@H]1c2ccccc2-c2c(-c3nc4ccncc4[nH]3)cccc21)c1cccc2ncccc12` (single isomer, unassigned) [Example 14A] the value was less than 1 µM.
For `O=C(N[C@H]1c2ccccc2-c2c(-c3nc4ccncc4[nH]3)cccc21)c1cccc2ncccc12` (single isomer, unassigned) [Example 14B] the value was 10 to 100 µM; for `c1ccc2c(c1)Cc1cccc(-c3nc4cnccc4[nH]3)c1-2` [Example 7, 2-(9H-fluoren-4-yl)-3H-imidazo[4,5-c]pyridine], 10 to 100 µM.
For `O/N=C1\c2ccccc2-c2c1cccc2-c1nc2cnccc2[nH]1` [Example 19, 4-(3H-imidazo[4,5-c]pyridin-2-yl)-fluoren-9-one oxime (Z)] the value was 1 to 10 µM.
As to `O/N=C1/c2ccccc2-c2c1cccc2-c1nc2cnccc2[nH]1` [Example 23, 4-(3H-imidazo[4,5-c]pyridin-2-yl)-fluoren-9-one oxime (E)], the IC50 was less than 1 µM.
Then `NC(=O)NN=C1c2ccccc2-c2c1cccc2-c1nc2ccncc2[nH]1` [Example 30, trifluoroacetate of 4-(3H-imidazo[4,5-c]pyridin-2-yl)-fluoren-9-one semicarbazone (Z, E)], with 10 to 100 µM.
Then `CC(C)(C)OC(=O)N[C@@H](CC(N)=O)C(=O)NC1c2ccccc2-c2c(-c3nc4cnccc4[nH]3)cccc21` (stereo partly drawn) [Example 57, tert-butyl ester of {(S)-2-carbamoyl-1-[4-(3H-imidazo[4,5-c]pyridin-2-yl)-9H-fluoren-9(R,S)-ylcarbamoyl]-ethyl}-carbamoic acid], with 1 to 10 µM.
Then `CC(C)(C)OC(=O)N[C@H](CC(=O)NC1c2ccccc2-c2c(-c3nc4cnccc4[nH]3)cccc21)C(N)=O` (stereo partly drawn) [Example 59, tert-butyl ester of {(R)-1-carbamoyl-2-[4-(3H-imidazo[4,5-c]pyridin-2-yl)-9H-fluoren-9(R,S)-ylcarbamoyl]-ethyl}-carbamoic acid], with 1 to 10 µM.
For the compound `CC(C)(C)OC(=O)N[C@H](CC(N)=O)C(=O)NC1c2ccccc2-c2c(-c3nc4cnccc4[nH]3)cccc21` (stereo partly drawn) [Example 61, tert-butyl ester of {(R)-2-carbamoyl-1-[4-(3H-imidazo[4,5-c]pyridin-2-yl)-9H-fluoren-9(R,S)-ylcarbamoyl]-ethyl}-carbamoic acid], the half-inhibitory concentration (IC50) lay in the range of 1 to 10 µM.
Consider `NC(=O)C[C@H](N)C(=O)NC1c2ccccc2-c2c(-c3nc4cnccc4[nH]3)cccc21` (stereo partly drawn) [Example 63, hydrochloride of (S)-2-amino-N1-[4-(3H-imidazo[4,5-c]pyridin-2-yl)-9H-fluoren-9(R,S)-yl]-succinamide], for which the IC50 was 1 to 10 µM.
Then `NC(=O)C[C@@H](N)C(=O)NC1c2ccccc2-c2c(-c3nc4cnccc4[nH]3)cccc21` (stereo partly drawn) [Example 65, hydrochloride of (R)-2-amino-N1-[4-(3H-imidazo[4,5-c]pyridin-2-yl)-9H-fluoren-9(R,S)-yl]-succinamide], with 1 to 10 µM.
Then `O=C1c2ccccc2-c2c1cccc2-c1nc2ccc(F)cc2[nH]1` [Example 69, 4-(6-fluoro-1H-benzimidazol-2-yl)-fluoren-9-one], with 10 to 100 µM; and `O=C(NC1c2ccccc2-c2c(-c3nc4ccncc4[nH]3)cccc21)c1cc(C2CC2)nc2ccccc12` (stereo not shown) [Example 85, [4-(3H-imidazo[4,5-c]pyridin-2-yl)-9H-fluoren-9-yl]amide of 2-cyclopropyl-quinoline-4-carboxylic acid], with 1 to 10 µM; and `O=C(NC1c2ccccc2-c2c(-c3nc4ccncc4[nH]3)cccc21)c1ccnnc1` (stereo not shown) [Example 86, [4-(3H-imidazo[4,5-c]pyridin-2-yl)-9H-fluoren-9-yl]amide of pyridazine-4-carboxylic acid], with 1 to 10 µM.
For `O=C(NC1c2ccccc2-c2c(-c3nc4ccncc4[nH]3)cccc21)c1cc(O)nc(O)n1` (stereo not shown) [Example 88, [4-(3H-imidazo[4,5-c]pyridin-2-yl)-9H-fluoren-9-yl]amide of 2,6-dihydroxypyrimidine-4-carboxylic acid] the value was 1 to 10 µM.
Regarding `O=C(NC1c2ccccc2-c2c(-c3nc4ccncc4[nH]3)cccc21)c1ccnc(O)n1` (stereo not shown) [Example 89, [4-(3H-imidazo[4,5-c]pyridin-2-yl)-9H-fluoren-9-yl]amide of 2-hydroxypyrimidine-4-carboxylic acid], the IC50 fell in the range of 1 to 10 µM.
For `Cc1ccc2c(C(=O)NC3c4ccccc4-c4c(-c5nc6ccncc6[nH]5)cccc43)cccc2n1` (stereo not shown) [Example 90, [4-(3H-imidazo[4,5-c]pyridin-2-yl)-9H-fluoren-9-yl]amide of 2-methyl-quinoline-5-carboxylic acid] the value was 1 to 10 µM.
For `Nc1nccc(C(=O)NC2c3ccccc3-c3c(-c4nc5ccncc5[nH]4)cccc32)n1` (stereo not shown) [Example 91, [4-(3H-imidazo[4,5-c]pyridin-2-yl)-9H-fluoren-9-yl]amide of 2-amino-pyrimidine-4-carboxylic acid] the value was less than 1 µM; for `O=C(NC1c2ccccc2-c2c(-c3nc4ccncc4[nH]3)cccc21)c1cc(O)ncn1` (stereo not shown) [Example 93, [4-(3H-imidazo[4,5-c]pyridin-2-yl)-9H-fluoren-9-yl]amide of 6-hydroxypyrimidine-4-carboxylic acid], 1 to 10 µM.
